Measured values as given in patent US20230227427A1, “IL-17A MODULATORS” (SANOFI, priority 2010, published 2023).

Target: T1, human recombinant IL-17A (Homo sapiens, UniProt Q16552)
T1 construct: purchased R&D Systems 7955-IL/CF
T1 sequence (Q16552 24-155): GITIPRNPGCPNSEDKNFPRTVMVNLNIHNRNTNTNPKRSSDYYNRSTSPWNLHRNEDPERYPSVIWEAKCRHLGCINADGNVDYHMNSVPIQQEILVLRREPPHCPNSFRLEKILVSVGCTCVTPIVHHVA
Test: IL-17A AlphaLISA assay (block binding of IL-17A to its receptor IL-17RA)
Settings: compounds pre-incubated with the IL-17A for 30 min (indicated by * in Table A); read-out: AlphaLISA pIC50 (converted)
In short: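 Compounds pre-incubated 24 h at RT (30 min where flagged) with human IL-17A (7.5 nM stock) before IL-17RA/Fc (5 nM stock), 90 min. Read by AlphaLISA via anti-Fc acceptor and biotin anti-IL-17A/streptavidin donor beads, 680/615 nm. 4-parameter fit; DMSO and 6 μM reference inhibitor as controls; pIC50.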

IC50: 79.4 nM
Compound: CCn1nccc1C(=O)N[C@H](C(=O)Nc1ccc(-c2c(C)nnn2C)cn1)C1CCCCCC1 [Example 149, (S)—N-(1-cycloheptyl-2-((5-(1,4-dimethyl-1H-1,2,3-triazol-5-yl)pyridin-2-yl)amino)-2-oxoethyl)-1-ethyl-1H-pyrazole-5-carboxamide]
